Test results reported in the supplement of paper PMC10011410.

What was measured:
U-2 OS [1] = experiment: relative cell count vs DMSO (cell painting) (fraction of DMSO control); higher = more cells remaining (less cytotoxic); conditions: 24 h
Procedure: (§1)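 Cell painting in U-2 OS cells (384-well, about 1,500 cells per well), compound exposure 24 h, usually six 2-fold concentrations from 20 to 0.625 uM (some compounds higher or lower). Relative cell count is the cell number per well relative to DMSO wells. Activity score is the Mahalanobis distance of the morphological profile from DMSO control wells. Mean of four technical replicate plates.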

U-2 OS [2] = experiment: AUC of culture confluence over time (live-cell imaging) (AUC (confluence % x time)); higher = more confluent culture (less growth inhibition)
Procedure: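 Live-cell Incucyte imaging of U-2 OS cells in F-12K medium. Compounds were tested mostly at 5, 10 and 20 uM, and cells were imaged every 4 h for up to 60 h. Value is the area under the curve of phase-contrast confluence over time.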

U-2 OS [3] = experiment: cell painting activity score (Mahalanobis distance from DMSO wells); higher = stronger morphological phenotype; conditions: 24 h
Procedure: as §1

SMILES: C[C@@]12C(=O)OC(=O)[C@]1(C)[C@H]1CC[C@@H]2O1
- relative cell count (U-2 OS [1]; 0.625 µM): 0.887
- relative cell count (U-2 OS [1]; 1.25 µM): 0.831
- relative cell count (U-2 OS [1]; 2.5 µM): 0.869
- relative cell count (U-2 OS [1]; 5 µM): 0.887
- relative cell count (U-2 OS [1]; 10 µM): 0.918
- relative cell count (U-2 OS [1]; 20 µM): 0.792
- AUC of culture confluence over time (U-2 OS [2]; 5 µM): 32.8
- AUC of culture confluence over time (U-2 OS [2]; 10 µM): 33.9
- AUC of culture confluence over time (U-2 OS [2]; 20 µM): 19.5
- cell painting activity score (U-2 OS [3]; 0.625 µM): 13.8
- cell painting activity score (U-2 OS [3]; 1.25 µM): 14.1
- cell painting activity score (U-2 OS [3]; 2.5 µM): 13.8
- cell painting activity score (U-2 OS [3]; 5 µM): 13.3
- cell painting activity score (U-2 OS [3]; 10 µM): 13.5
- cell painting activity score (U-2 OS [3]; 20 µM): 9.67

SMILES: O=C(CBr)N1CC([N+](=O)[O-])([N+](=O)[O-])C1
- relative cell count (U-2 OS [1]; 0.625 µM): 0.992
- relative cell count (U-2 OS [1]; 1.25 µM): 1.02
- relative cell count (U-2 OS [1]; 2.5 µM): 0.919
- relative cell count (U-2 OS [1]; 5 µM): 0.891
- relative cell count (U-2 OS [1]; 10 µM): 0.972
- relative cell count (U-2 OS [1]; 20 µM): 0.873
- AUC of culture confluence over time (U-2 OS [2]; 5 µM): 50
- AUC of culture confluence over time (U-2 OS [2]; 10 µM): 49.9
- AUC of culture confluence over time (U-2 OS [2]; 20 µM): 42.4
- cell painting activity score (U-2 OS [3]; 0.625 µM): 6.87
- cell painting activity score (U-2 OS [3]; 1.25 µM): 7.38
- cell painting activity score (U-2 OS [3]; 2.5 µM): 11.3
- cell painting activity score (U-2 OS [3]; 5 µM): 10.6
- cell painting activity score (U-2 OS [3]; 10 µM): 11.8
- cell painting activity score (U-2 OS [3]; 20 µM): 11.3

SMILES: CC(C)(N=NC(C)(C)C(=N)N)C(=N)N.Cl.Cl
- relative cell count (U-2 OS [1]; 0.625 µM): 1.01
- relative cell count (U-2 OS [1]; 1.25 µM): 0.966
- relative cell count (U-2 OS [1]; 2.5 µM): 0.949
- relative cell count (U-2 OS [1]; 5 µM): 1.01
- relative cell count (U-2 OS [1]; 10 µM): 0.975
- relative cell count (U-2 OS [1]; 20 µM): 0.977
- AUC of culture confluence over time (U-2 OS [2]; 5 µM): 49.5
- AUC of culture confluence over time (U-2 OS [2]; 10 µM): 48.3
- AUC of culture confluence over time (U-2 OS [2]; 20 µM): 46.6
- cell painting activity score (U-2 OS [3]; 0.625 µM): 5.15
- cell painting activity score (U-2 OS [3]; 1.25 µM): 4.98
- cell painting activity score (U-2 OS [3]; 2.5 µM): 5.89
- cell painting activity score (U-2 OS [3]; 5 µM): 7.2
- cell painting activity score (U-2 OS [3]; 10 µM): 8.42
- cell painting activity score (U-2 OS [3]; 20 µM): 9.74

SMILES: CC1(C)[C@@H](O[C@H]2O[C@H](C(=O)O)[C@@H](O)[C@H](O)[C@H]2O[C@@H]2O[C@H](C(=O)O)[C@@H](O)[C@H](O)[C@H]2O)CC[C@]2(C)[C@H]3C(=O)C=C4[C@@H]5C[C@@](C)(C(=O)O)CC[C@]5(C)CC[C@@]4(C)[C@]3(C)CC[C@@H]12.N
- relative cell count (U-2 OS [1]; 0.625 µM): 1
- relative cell count (U-2 OS [1]; 1.25 µM): 0.993
- relative cell count (U-2 OS [1]; 2.5 µM): 0.972
- relative cell count (U-2 OS [1]; 5 µM): 0.982
- relative cell count (U-2 OS [1]; 10 µM): 1
- relative cell count (U-2 OS [1]; 20 µM): 1.03
- AUC of culture confluence over time (U-2 OS [2]; 5 µM): 50.8
- AUC of culture confluence over time (U-2 OS [2]; 10 µM): 48.2
- AUC of culture confluence over time (U-2 OS [2]; 20 µM): 51
- cell painting activity score (U-2 OS [3]; 0.625 µM): 4.09
- cell painting activity score (U-2 OS [3]; 1.25 µM): 5.25
- cell painting activity score (U-2 OS [3]; 2.5 µM): 5.85
- cell painting activity score (U-2 OS [3]; 5 µM): 3.67
- cell painting activity score (U-2 OS [3]; 10 µM): 3.06
- cell painting activity score (U-2 OS [3]; 20 µM): 3.66

SMILES: Nc1ccn([C@@H]2O[C@H](CO)[C@@H](O)C2(F)F)c(=O)n1
- relative cell count (U-2 OS [1]; 0.625 µM): 0.601
- relative cell count (U-2 OS [1]; 1.25 µM): 0.571
- relative cell count (U-2 OS [1]; 2.5 µM): 0.574
- relative cell count (U-2 OS [1]; 5 µM): 0.581
- relative cell count (U-2 OS [1]; 10 µM): 0.624
- relative cell count (U-2 OS [1]; 20 µM): 0.589
- AUC of culture confluence over time (U-2 OS [2]; 5 µM): 29.2
- AUC of culture confluence over time (U-2 OS [2]; 10 µM): 31.9
- AUC of culture confluence over time (U-2 OS [2]; 20 µM): 28.7
- cell painting activity score (U-2 OS [3]; 0.625 µM): 13.7
- cell painting activity score (U-2 OS [3]; 1.25 µM): 14
- cell painting activity score (U-2 OS [3]; 2.5 µM): 14.9
- cell painting activity score (U-2 OS [3]; 5 µM): 15.2
- cell painting activity score (U-2 OS [3]; 10 µM): 15.4
- cell painting activity score (U-2 OS [3]; 20 µM): 14.3

SMILES: N[C@@H](Cc1ccc(N(CCCl)CCCl)cc1)C(=O)O
- relative cell count (U-2 OS [1]; 0.625 µM): 0.959
- relative cell count (U-2 OS [1]; 1.25 µM): 0.939
- relative cell count (U-2 OS [1]; 2.5 µM): 0.879
- relative cell count (U-2 OS [1]; 5 µM): 0.883
- relative cell count (U-2 OS [1]; 10 µM): 0.733
- relative cell count (U-2 OS [1]; 20 µM): 0.723
- AUC of culture confluence over time (U-2 OS [2]; 5 µM): 34.2
- AUC of culture confluence over time (U-2 OS [2]; 10 µM): 33.1
- AUC of culture confluence over time (U-2 OS [2]; 20 µM): 30.4
- cell painting activity score (U-2 OS [3]; 0.625 µM): 3.56
- cell painting activity score (U-2 OS [3]; 1.25 µM): 5.26
- cell painting activity score (U-2 OS [3]; 2.5 µM): 5.71
- cell painting activity score (U-2 OS [3]; 5 µM): 6.03
- cell painting activity score (U-2 OS [3]; 10 µM): 8.71
- cell painting activity score (U-2 OS [3]; 20 µM): 9.32

SMILES: COc1ccc(/C=C/C(=O)O[C@@H]2[C@H](O[C@@H]3O[C@@H](C)[C@H](O)[C@@H](O)[C@H]3O)[C@@H](O[C@@H]3O[C@@H](C)[C@H](O[C@@H]4OC[C@@H](O[C@@H]5O[C@H](CO)[C@H](O)[C@H](O)[C@H]5O)[C@H](O)[C@H]4O)[C@@H](O)[C@H]3O)[C@H](OC(=O)[C@]34CCC(C)(C)C[C@H]3C3=CC[C@@H]5[C@@]6(C)C[C@H](O)[C@H](O[C@@H]7O[C@H](CO)[C@@H](O)[C@H](O)[C@H]7O)[C@@](C)(C(=O)O)[C@@H]6CC[C@@]5(C)[C@]3(CO)CC4)O[C@@H]2C)cc1
- relative cell count (U-2 OS [1]; 0.625 µM): 1.07
- relative cell count (U-2 OS [1]; 1.25 µM): 0.975
- relative cell count (U-2 OS [1]; 2.5 µM): 0.938
- relative cell count (U-2 OS [1]; 5 µM): 0.66
- relative cell count (U-2 OS [1]; 10 µM): 0.252
- relative cell count (U-2 OS [1]; 20 µM): 0.035
- AUC of culture confluence over time (U-2 OS [2]; 5 µM): 43.7
- AUC of culture confluence over time (U-2 OS [2]; 10 µM): 44.3
- AUC of culture confluence over time (U-2 OS [2]; 20 µM): 14.2
- cell painting activity score (U-2 OS [3]; 0.625 µM): 8.17
- cell painting activity score (U-2 OS [3]; 1.25 µM): 11.2
- cell painting activity score (U-2 OS [3]; 2.5 µM): 12.4
- cell painting activity score (U-2 OS [3]; 5 µM): 9.11
- cell painting activity score (U-2 OS [3]; 10 µM): 10.1
- cell painting activity score (U-2 OS [3]; 20 µM): 37.6

SMILES: O=NN(CCCl)C(=O)NCCCl
- relative cell count (U-2 OS [1]; 0.625 µM): 1.01
- relative cell count (U-2 OS [1]; 1.25 µM): 0.934
- relative cell count (U-2 OS [1]; 2.5 µM): 0.932
- relative cell count (U-2 OS [1]; 5 µM): 0.946
- relative cell count (U-2 OS [1]; 10 µM): 0.929
- relative cell count (U-2 OS [1]; 20 µM): 0.856
- AUC of culture confluence over time (U-2 OS [2]; 5 µM): 44.8
- AUC of culture confluence over time (U-2 OS [2]; 10 µM): 47.8
- AUC of culture confluence over time (U-2 OS [2]; 20 µM): 42.3
- cell painting activity score (U-2 OS [3]; 0.625 µM): 4.49
- cell painting activity score (U-2 OS [3]; 1.25 µM): 4.2
- cell painting activity score (U-2 OS [3]; 2.5 µM): 5.44
- cell painting activity score (U-2 OS [3]; 5 µM): 4.8
- cell painting activity score (U-2 OS [3]; 10 µM): 6.45
- cell painting activity score (U-2 OS [3]; 20 µM): 8.52
